Like-named read-outs stand apart in the source and are kept apart here. Blank lines part the entries; values can stand above or below the compound they belong to.
How the values were obtained:
NUGC4 [1] = assay: Cell proliferation of diffuse gastric cancer cell strain NUGC4 (Cell Counting Kit-8); type: cell-based; details: for Inhibitory effect on HGF induced, amphiregulin induced and base line cell proliferation: single agent, 0.001 to 10 micro M; for IC50: Homo sapiens, 72 hours
Description: (§1) Each diffuse gastric cancer cell strain of NUGC4 (obtained from Health Science Research Resources Bank (Osaka, Japan)) and GCIY (obtained from Riken BioResource Research Center (Tsukuba, Japan)) was cultured and passaged in an RPMI1640 culture medium containing 10% fetal calf serum, 100 units/mL penicillin, and […] streptomycin antibiotic, and was used for the following experiments. Mycoplasma infection of cultured cells was regularly checked by MycoAlert Mycoplasma Detection kit (Lonza).
(§2) Cell proliferation was measured by Cell Counting Kit-8 (CCK-8) (Dojindo Laboratories, Kumamoto, Japan) (M. Ishiyama, et al., Talenta 44; 1299: 1997). Cells were seeded at 100 micro L/well at a concentration of 5×10^4 cells/mL and were cultured in an incubator at 37° C. for 24 hours. To each well, HGF (R&D systems) (50 ng/mL) or amphiregulin (R&D Systems (Minneapolis, Minn.)) (100 ng/mL) and trametinib (Selleck Chemicals (Houston, Tex.)) (0.001 to 10 micro M) were then added, and the cells were further cultured in an incubator at 37° C. for 72 hours. To each well, 10 micro L of a WST-solution was added, which was incubated at 37° C. for 4 hours. Absorbance was measured at a wavelength of 450 nm by a microplate reader (BIO-RAD Laboratories, Inc.). A similar experiment was repeated three times in triplets.

MKN7 = assay: Cell proliferation of non-diffuse gastric cancer cells MKN7 (Cell Counting Kit-8); type: cell-based, Human; details: for IC50: Homo sapiens, MKN-7, MKN7
Description: as §2
(§3) Effects of trametinib on proliferation of non-diffuse gastric cancer cell were examined by the similar method to that in Example 1.
(§4) Human non-diffuse, well-differentiated gastric cancer cells used were MKN7 (Health Science Research Resources Bank (Osaka, Japan)) and GCR1 (Cancer Research Institute, Kanazawa University).

NUGC4 [2] = assay: Cell proliferation of diffuse gastric cancer cell strain NUGC4 (Cell Counting Kit-8); type: cell-based; details: for IC50: Homo sapiens
GCIY = assay: Cell proliferation of diffuse gastric cancer cell strain GCIY (Cell Counting Kit-8); type: cell-based; details: for IC50: Homo sapiens
Description: as §1, §2

GCR1 = assay: Cell proliferation of non-diffuse gastric cancer cells GCR1 (Cell Counting Kit-8); type: cell-based; details: Homo sapiens
Description: as §2, §3, §4

MKN45 = assay: Cell proliferation of cMet gene-amplified gastric cancer cell strain MKN45 (Cell Counting Kit-8); type: cell-based; details: Homo sapiens
Description: as §2
Effects of trametinib on proliferation of cMet gene-amplified gastric cancer cell were examined by the similar method to that in Example 1.
As the cMet gene-amplified gastric cancer cells, cMet gene-amplified gastric cancer cell strain MKN45 (Health Science Research Resources Bank (Osaka, Japan)) was used.

NUGC4 cells = assay: Survival of Balb/c nu/nu mice intraperitoneally transplanted with diffuse gastric cancer cells; type: in vivo, Balb/c nu/nu mouse; details: NUGC4 intraperitoneal transplant; oral administration from day 21 for 4 weeks, then 4 weeks observation; control mice all died within 7 weeks
Description: To a Balb/c nu/nu mouse (6 weeks old), diffuse gastric cancer cells (NUGC4 cells, 2×10^6 cells in 200 micro L PBS) were transplanted by intraperitoneal administration. On 21 days after transplantation, ascites was observed, and oral administration was started with trametinib (0.1 mg/kg body weight or 0.3 mg/kg body weight), everolimus (1.5 mg/kg body weight), combined use of trametinib (0.1 mg/kg body weight) and everolimus (1 mg/kg body weight), combined use of trametinib (0.1 mg/kg body weight) and everolimus (1 mg/kg body weight), combined use of trametinib (0.3 mg/kg) and everolimus (1 mg/kg), or combined use of trametinib (0.3 mg/kg body weight) and everolimus (5 mg/kg body weight). Each of the trametinib and the everolimus was dissolved in a solution (7% DMSO, 13% Tween80, 80% Otsuka glucose injection (5%), HCl equimolar to each compound). To a control group, only a solution containing no medicinal agent was administered. Administration was continued for 4 weeks, followed by observation for the following 4 weeks without administration of the medicinal agent.

[3] = HGF induced, combined with everolimus 1 micro M, read-out: Trametinib IC50 (micro M) HGF
[4] = amphiregulin induced, combined with everolimus 1 micro M, read-out: Trametinib IC50 (micro M) amphiregulin
[5] = base line, Example 5, combined use with everolimus 1 micro M, read-out: Trametinib IC50 (micro M) Base line
[6] = HGF induced proliferation, read-out: Trametinib IC50 (micro M) HGF
[7] = amphiregulin induced proliferation, read-out: Trametinib IC50 (micro M) amphiregulin
[8] = without HGF or amphiregulin, read-out: Trametinib IC50 (micro M) Base line

Compound: Cc1cc(NC(=O)c2cccc(NC(=O)/C=C/CN(C)C)c2)ccc1Nc1nccc(-c2cccnc2)n1 [JNK-IN-8]
- Inhibitory effect on HGF induced, amphiregulin induced and base line cell proliferation (NUGC4 [1]): did not exhibit obvious inhibitory effects

Compound: O=C(NOC[C@H](O)CO)c1ccc(F)c(F)c1Nc1ccc(I)cc1F [PD0325901]
- Proliferation inhibitory effect of combined use of PD0325901 and temsirolimus (MKN7; MKN7, temsirolimus 1 micro M): no combined effect was exhibited
- Proliferation inhibitory effect of combined use of PD0325901 and temsirolimus (NUGC4 [2]; temsirolimus 1 micro M): synergistically improved by addition of temsirolimus

- IC50 (NUGC4 [1]; NUGC-4, HGF 50 ng/mL induced proliferation, read-out: Trametinib IC50 (micro M) HGF): 0.1 µM
- IC50 (NUGC4 [1]; NUGC-4, amphiregulin 100 ng/mL induced proliferation, read-out: Trametinib IC50 (micro M) amphiregulin): 0.3 µM
- IC50 (NUGC4 [1]; NUGC-4, without HGF and AP, read-out: Trametinib IC50 (micro M) Base line): ≤ 0.001 µM
- IC50 (GCIY; HGF 50 ng/mL induced proliferation, 72 hours, read-out: Trametinib IC50 (micro M) HGF): 0.1 µM
- IC50 (GCIY; [3]): 0.1 µM
- IC50 (GCIY; amphiregulin 100 ng/mL induced proliferation, 72 hours, read-out: Trametinib IC50 (micro M) amphiregulin): 10 µM
- IC50 (GCIY; [4]): 0.3 µM
- IC50 (GCIY; [5]): 0.03 µM
- IC50 (GCIY; without HGF and AP, 72 hours, read-out: Trametinib IC50 (micro M) Base line): 0.1 µM
- IC50 (MKN7; [6]): 0.1 µM
- IC50 (MKN7; [3]): 0.1 µM
- IC50 (MKN7; [7]): 0.3 µM
- IC50 (MKN7; [4]): 0.1 µM
- IC50 (MKN7; [5]): 0.03 µM
- IC50 (MKN7; [8]): 0.1 µM
- IC50 (GCR1; [6]): 0.1 µM
- IC50 (GCR1; [3]): 0.1 µM
- IC50 (GCR1; [7]): 0.3 µM
- IC50 (GCR1; [4]): 0.1 µM
- IC50 (GCR1; [5]): 0.03 µM
- IC50 (GCR1; [8]): 0.1 µM
- IC50 (MKN45; MKN-45, HGF added, read-out: Trametinib IC50 (micro M) HGF): 0.001 µM
- IC50 (MKN45; MKN-45, amphiregulin added, read-out: Trametinib IC50 (micro M) amphiregulin): 0.001 µM
- IC50 (MKN45; MKN-45, without HGF and AP, read-out: Trametinib IC50 (micro M) Base line): 0.001 µM
- IC50 (NUGC4 [2]; NUGC-4, HGF induced, combined with everolimus 1 micro M, read-out: Trametinib IC50 (micro M) HGF): 0.01 µM
- IC50 (NUGC4 [2]; NUGC-4, amphiregulin induced, combined with everolimus 1 micro M, read-out: Trametinib IC50 (micro M) amphiregulin): 0.03 to 0.1 µM
- IC50 (NUGC4 [2]; NUGC-4, base line, Example 5, combined use with everolimus 1 micro M, read-out: Trametinib IC50 (micro M) Base line): ≤ 0.001 µM
Compound: CC(=O)Nc1cccc(-n2c(=O)n(C3CC3)c(=O)c3c(Nc4ccc(I)cc4F)n(C)c(=O)c(C)c32)c1 [Trametinib, trametinib]
- Concentration from which proliferation inhibitory effect on the amphiregulin induced proliferation was observed (GCIY; amphiregulin induced): ≥ 0.03 micro M

Compound: CO[C@H]1C[C@@H]2CC[C@@H](C)[C@@](O)(O2)C(=O)C(=O)N2CCCC[C@H]2C(=O)O[C@H]([C@H](C)C[C@@H]2CC[C@@H](OCCO)[C@H](OC)C2)CC(=O)[C@H](C)/C=C(\C)[C@@H](O)[C@@H](OC)C(=O)[C@H](C)C[C@H](C)/C=C/C=C/C=C/1C [everolimus]
- Survival time as compared with the control group (NUGC4 cells): prolonged survival times

Compound: O=C(NC[C@H](O)CO)c1ccncc1Nc1ccc(I)cc1F [pimasertib]
- Proliferation inhibitory effect of combined use of pimasertib and rapamycin (MKN7; MKN7, rapamycin 1 micro M): no combined effect was exhibited

Compound: AZD5363
- Inhibitory effect on the HGF induced cell proliferation (NUGC4 [1]; HGF induced): no inhibitory effect was exhibited except for a high concentration of 10 micro M
- Inhibitory effect on the amphiregulin induced cell proliferation (NUGC4 [1]; amphiregulin induced): a slight inhibitory effect was exhibited at a high concentration of 1 micro M or more
- Inhibitory effect on HGF induced, amphiregulin induced and base line cell proliferation (NUGC4 [1]): even lower than the inhibitory effect of everolimus
- Inhibitory effect on the base line cell proliferation (NUGC4 [1]; without HGF and AP): No inhibitory effect was exhibited

— US20210267979A1, “THERAPEUTIC AGENT FOR TREATING DIFFUSE GASTRIC CANCER” (KANAZAWA MEDICAL UNIVERSITY, priority 2018, published 2021)
